Results: ChEMBL document CHEMBL5113400, “Design, synthesis, and biological evaluation of trizole-based heteroaromatic derivatives as Bcr-Abl kinase inhibitors” (Eur J Med Chem, 2022)
pIC50: −log10 of the molar value.

What was measured:
[1] = target: Vascular endothelial growth factor receptor 2 (Homo sapiens) (UniProt P35968); assay: Inhibition of recombinant human KDR at 10 uM for 10 mins followed by substrate addition in presence of ATP and measured after 60 mins by HTRF assay; conditions: time 70.0 min
Chain of Vascular endothelial growth factor receptor 2 (Homo sapiens) (P35968 whole entry): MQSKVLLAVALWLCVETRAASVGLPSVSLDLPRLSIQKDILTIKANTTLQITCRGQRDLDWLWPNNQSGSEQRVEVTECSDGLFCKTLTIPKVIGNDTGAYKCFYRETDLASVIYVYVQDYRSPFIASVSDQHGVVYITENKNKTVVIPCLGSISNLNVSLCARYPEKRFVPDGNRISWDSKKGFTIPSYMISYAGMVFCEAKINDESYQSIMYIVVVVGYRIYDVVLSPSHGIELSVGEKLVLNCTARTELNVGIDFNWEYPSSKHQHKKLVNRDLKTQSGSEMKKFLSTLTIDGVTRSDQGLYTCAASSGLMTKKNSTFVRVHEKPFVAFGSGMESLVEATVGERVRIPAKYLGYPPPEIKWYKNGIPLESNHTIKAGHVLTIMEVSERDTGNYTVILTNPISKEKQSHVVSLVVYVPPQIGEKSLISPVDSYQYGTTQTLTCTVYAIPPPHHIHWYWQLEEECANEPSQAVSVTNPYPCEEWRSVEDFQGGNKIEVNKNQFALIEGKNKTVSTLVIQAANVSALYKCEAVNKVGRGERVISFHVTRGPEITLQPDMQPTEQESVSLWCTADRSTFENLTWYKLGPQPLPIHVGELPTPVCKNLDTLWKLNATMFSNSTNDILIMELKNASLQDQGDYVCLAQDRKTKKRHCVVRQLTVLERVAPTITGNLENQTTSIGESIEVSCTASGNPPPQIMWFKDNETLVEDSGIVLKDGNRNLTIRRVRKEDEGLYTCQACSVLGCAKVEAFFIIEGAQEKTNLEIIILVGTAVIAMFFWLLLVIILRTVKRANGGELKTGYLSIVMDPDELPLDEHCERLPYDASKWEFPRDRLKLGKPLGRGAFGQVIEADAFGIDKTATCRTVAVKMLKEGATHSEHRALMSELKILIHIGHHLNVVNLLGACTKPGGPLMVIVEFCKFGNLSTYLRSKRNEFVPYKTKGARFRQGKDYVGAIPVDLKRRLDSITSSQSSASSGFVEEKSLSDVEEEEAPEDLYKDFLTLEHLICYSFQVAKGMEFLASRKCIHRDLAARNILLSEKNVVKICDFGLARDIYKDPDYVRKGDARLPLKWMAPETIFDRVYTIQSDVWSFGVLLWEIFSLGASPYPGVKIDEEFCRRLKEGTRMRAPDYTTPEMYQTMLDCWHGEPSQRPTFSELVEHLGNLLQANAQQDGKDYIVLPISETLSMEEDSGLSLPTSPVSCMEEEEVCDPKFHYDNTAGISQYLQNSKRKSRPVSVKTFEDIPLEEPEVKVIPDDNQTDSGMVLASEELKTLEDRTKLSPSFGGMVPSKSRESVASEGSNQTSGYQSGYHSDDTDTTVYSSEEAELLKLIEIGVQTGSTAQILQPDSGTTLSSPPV

K562 [2] = assay: Induction of apoptosis in human K562 cells assessed as necrotic cells at 5 uM incubated for 48 hrs by Annexin V-FITC/PI staining based flow cytometry analysis (Rvb= 0.09%); assay type: functional
[3] = target: Dual specificity tyrosine-phosphorylation-regulated kinase 1B (Homo sapiens) (UniProt Q9Y463); assay: Inhibition of recombinant human DYRK1B at 10 uM for 10 mins followed by substrate addition in presence of ATP and measured after 60 mins by HTRF assay; conditions: time 70.0 min
Chain of Dual specificity tyrosine-phosphorylation-regulated kinase 1B (Homo sapiens) (Q9Y463 whole entry, looked up): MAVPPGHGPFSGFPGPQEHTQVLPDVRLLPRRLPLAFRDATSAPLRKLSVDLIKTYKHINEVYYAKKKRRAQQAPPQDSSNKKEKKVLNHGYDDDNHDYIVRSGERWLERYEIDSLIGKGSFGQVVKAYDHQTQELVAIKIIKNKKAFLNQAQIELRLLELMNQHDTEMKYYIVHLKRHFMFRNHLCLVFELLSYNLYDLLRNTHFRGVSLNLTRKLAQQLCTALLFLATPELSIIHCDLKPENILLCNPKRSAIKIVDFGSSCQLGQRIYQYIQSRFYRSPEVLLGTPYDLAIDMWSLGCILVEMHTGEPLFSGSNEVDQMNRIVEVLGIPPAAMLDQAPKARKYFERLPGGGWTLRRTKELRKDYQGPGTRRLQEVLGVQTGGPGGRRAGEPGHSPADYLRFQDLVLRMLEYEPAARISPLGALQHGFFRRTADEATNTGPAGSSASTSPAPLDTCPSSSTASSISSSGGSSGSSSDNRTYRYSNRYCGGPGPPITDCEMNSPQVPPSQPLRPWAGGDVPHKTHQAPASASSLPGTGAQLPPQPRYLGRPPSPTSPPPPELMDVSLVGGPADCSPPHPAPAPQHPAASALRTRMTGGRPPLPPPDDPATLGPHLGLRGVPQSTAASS

K562 [4] = assay: Induction of apoptosis in human K562 cells assessed as late apoptotic cells at 1 uM incubated for 48 hrs by Annexin V-FITC/PI staining based flow cytometry analysis (Rvb= 14.66%); assay type: functional
[5] = target: Dual specificity tyrosine-phosphorylation-regulated kinase 1B (Homo sapiens) (UniProt Q9Y463); assay: Inhibition of recombinant human DYRK1B at 10 uM for 10 mins followed by substrate addition in presence of ATP and measured after 100 mins by ADP-Glo kinase assay; conditions: time 110.0 min
[6] = target: Platelet-derived growth factor receptor alpha (Homo sapiens) (UniProt P16234); assay: Inhibition of recombinant human PDGFRalpha at 10 uM for 10 mins followed by substrate addition in presence of ATP and measured after 60 mins by HTRF assay; conditions: time 70.0 min
Chain of Platelet-derived growth factor receptor alpha (Homo sapiens) (P16234 whole entry): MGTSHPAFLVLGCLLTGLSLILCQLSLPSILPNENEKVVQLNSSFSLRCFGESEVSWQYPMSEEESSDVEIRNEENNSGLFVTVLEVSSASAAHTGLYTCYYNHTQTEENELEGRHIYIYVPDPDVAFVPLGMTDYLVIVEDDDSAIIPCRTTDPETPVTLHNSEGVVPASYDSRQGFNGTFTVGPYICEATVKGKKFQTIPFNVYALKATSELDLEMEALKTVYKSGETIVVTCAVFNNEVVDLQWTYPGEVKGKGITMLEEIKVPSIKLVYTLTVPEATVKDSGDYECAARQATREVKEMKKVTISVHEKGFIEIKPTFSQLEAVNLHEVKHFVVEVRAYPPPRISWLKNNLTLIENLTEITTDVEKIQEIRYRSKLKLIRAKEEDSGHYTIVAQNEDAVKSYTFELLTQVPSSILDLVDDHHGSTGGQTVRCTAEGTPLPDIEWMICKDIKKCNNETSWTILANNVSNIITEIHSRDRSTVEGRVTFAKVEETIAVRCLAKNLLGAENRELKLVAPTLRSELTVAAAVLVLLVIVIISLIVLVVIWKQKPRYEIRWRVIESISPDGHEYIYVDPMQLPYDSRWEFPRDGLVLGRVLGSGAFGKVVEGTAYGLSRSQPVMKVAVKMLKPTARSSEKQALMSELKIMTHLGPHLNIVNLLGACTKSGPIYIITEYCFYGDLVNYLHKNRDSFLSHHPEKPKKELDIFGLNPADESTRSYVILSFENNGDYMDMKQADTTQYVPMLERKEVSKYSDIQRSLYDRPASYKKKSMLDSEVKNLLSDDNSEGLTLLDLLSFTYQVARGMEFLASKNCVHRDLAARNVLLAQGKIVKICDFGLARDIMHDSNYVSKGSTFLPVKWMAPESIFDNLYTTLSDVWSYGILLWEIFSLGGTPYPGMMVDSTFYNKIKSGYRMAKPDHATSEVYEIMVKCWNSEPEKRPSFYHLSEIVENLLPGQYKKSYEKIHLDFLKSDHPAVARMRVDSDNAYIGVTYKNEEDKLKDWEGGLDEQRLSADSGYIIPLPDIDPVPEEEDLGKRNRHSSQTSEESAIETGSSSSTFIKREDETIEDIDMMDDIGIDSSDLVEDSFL

[7] = target: T1, Signal transducer and activator of transcription 5A (Homo sapiens) (UniProt P42229); assay: Inhibition of STAT5 phosphorylation at Tyr694 residue in human K562 cells expressing wild type Bcr-Abl at 0.1 to 15 uM measured after 48 hrs by Western blot analysis; assay type: cell-based; conditions: dose 0.1-15 µM, DDE = dose-dependent effect
T1 sequence (whole entry): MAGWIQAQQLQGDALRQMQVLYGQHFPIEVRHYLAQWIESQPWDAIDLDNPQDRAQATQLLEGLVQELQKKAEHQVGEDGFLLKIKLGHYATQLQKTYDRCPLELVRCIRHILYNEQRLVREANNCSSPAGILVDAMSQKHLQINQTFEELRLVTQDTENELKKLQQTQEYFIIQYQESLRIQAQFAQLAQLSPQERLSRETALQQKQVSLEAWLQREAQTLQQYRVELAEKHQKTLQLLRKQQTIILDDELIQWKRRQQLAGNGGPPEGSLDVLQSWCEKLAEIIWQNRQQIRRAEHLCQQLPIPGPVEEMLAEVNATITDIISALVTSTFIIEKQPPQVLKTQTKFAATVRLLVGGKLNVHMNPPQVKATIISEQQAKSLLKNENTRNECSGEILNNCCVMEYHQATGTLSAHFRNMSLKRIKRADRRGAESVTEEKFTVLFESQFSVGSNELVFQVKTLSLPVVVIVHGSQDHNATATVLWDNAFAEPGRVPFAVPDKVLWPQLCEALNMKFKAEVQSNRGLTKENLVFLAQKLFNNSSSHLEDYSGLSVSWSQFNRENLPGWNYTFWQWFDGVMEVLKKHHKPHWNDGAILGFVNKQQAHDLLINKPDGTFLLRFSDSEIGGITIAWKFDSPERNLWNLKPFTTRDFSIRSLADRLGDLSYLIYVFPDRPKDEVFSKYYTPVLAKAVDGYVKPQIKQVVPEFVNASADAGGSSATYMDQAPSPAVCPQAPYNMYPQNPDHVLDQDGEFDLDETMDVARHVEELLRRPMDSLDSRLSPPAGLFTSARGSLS

[8] = target: Bcr/Abl fusion protein (Homo sapiens) (UniProt P00519+P11274); assay: Inhibition of Bcr-Abl phosphorylation at Tyr245 residue in human K562 cells expressing wild type Bcr-Abl at 0.1 to 15 uM measured after 48 hrs by Western blot analysis; assay type: cell-based; conditions: dose 0.1-15 µM, DDE = dose-dependent effect
K562 [9] = assay: Induction of apoptosis in human K562 cells assessed as early apoptotic cells at 10 uM incubated for 48 hrs by Annexin V-FITC/PI staining based flow cytometry analysis (Rvb= 4.35%); assay type: functional
BaF3 [10] = assay: Antiproliferative activity against mouse BaF3 cells expressing Bcr-Abl T315I mutant assessed as inhibition of cell growth at 30 uM incubated for 72 hrs by CellTiter-Glo luminescent assay; assay type: functional
BaF3 [11] = assay: Antiproliferative activity against mouse BaF3 cells expressing wild type Bcr-Abl assessed as inhibition of cell growth incubated for 72 hrs by CellTiter-Glo luminescent assay; assay type: functional, cell-based; conditions: BaF3, 72 h
[12] = target: Platelet-derived growth factor receptor alpha (Homo sapiens) (UniProt P16234); assay: Inhibition of recombinant human PDGFRalpha at 10 uM for 10 mins followed by substrate addition in presence of ATP and measured after 100 mins by ADP-Glo kinase assay; conditions: time 110.0 min
[13] = target: Vascular endothelial growth factor receptor 2 (Homo sapiens) (UniProt P35968); assay: Inhibition of recombinant human KDR at 10 uM for 10 mins followed by substrate addition in presence of ATP and measured after 100 mins by ADP-Glo kinase assay; conditions: time 110.0 min
K562 [14] = assay: Induction of apoptosis in human K562 cells assessed as viable cells at 10 uM incubated for 48 hrs by Annexin V-FITC/PI staining based flow cytometry analysis (Rvb=80.89%); assay type: functional; conditions: read-out: Activity
K562 [15] = assay: Induction of cell cycle arrest in human K562 cells assessed as accumulation at G2/M phase at 1 to 10 uM incubated for 48 hrs by PI staining based flow cytometry (Rvb= 12.23%); assay type: functional; conditions: dose 1-10 µM
[16] = target: Tyrosine-protein kinase receptor UFO (Homo sapiens) (UniProt P30530); assay: Inhibition of recombinant human AXL at 10 uM for 10 mins followed by substrate addition in presence of ATP and measured after 100 mins by ADP-Glo kinase assay; conditions: time 110.0 min
Chain of Tyrosine-protein kinase receptor UFO (Homo sapiens) (P30530 whole entry): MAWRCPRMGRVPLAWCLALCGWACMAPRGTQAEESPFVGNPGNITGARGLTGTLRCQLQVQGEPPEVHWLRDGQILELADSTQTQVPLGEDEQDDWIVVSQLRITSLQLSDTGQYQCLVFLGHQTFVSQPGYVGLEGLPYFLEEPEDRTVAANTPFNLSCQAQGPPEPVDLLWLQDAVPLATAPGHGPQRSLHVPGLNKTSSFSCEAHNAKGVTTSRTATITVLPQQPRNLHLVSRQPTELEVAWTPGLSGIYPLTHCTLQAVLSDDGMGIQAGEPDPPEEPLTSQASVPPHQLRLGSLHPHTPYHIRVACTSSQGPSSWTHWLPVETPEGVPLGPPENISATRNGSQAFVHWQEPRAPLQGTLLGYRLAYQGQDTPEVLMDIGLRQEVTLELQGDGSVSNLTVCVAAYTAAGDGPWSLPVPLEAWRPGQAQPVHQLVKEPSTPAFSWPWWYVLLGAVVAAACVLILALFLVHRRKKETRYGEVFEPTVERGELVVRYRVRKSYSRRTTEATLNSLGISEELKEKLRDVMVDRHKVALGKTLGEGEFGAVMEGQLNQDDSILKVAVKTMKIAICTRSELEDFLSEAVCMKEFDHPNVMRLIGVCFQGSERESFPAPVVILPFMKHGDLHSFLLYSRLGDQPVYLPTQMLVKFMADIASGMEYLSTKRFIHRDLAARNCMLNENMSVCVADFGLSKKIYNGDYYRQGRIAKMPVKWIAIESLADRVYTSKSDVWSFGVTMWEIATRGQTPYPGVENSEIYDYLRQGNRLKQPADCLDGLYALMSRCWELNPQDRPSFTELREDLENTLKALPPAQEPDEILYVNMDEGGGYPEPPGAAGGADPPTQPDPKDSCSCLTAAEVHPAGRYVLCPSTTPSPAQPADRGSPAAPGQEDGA

HEK293 = assay: Cytotoxicity against human HEK293 cells assessed as inhibition of cell growth upto 100 uM incubated for 48 hrs by MTT assay; assay type: toxicity, cell-based; conditions: hek293, 48 h
K562 [17] = assay: Induction of apoptosis in human K562 cells assessed as early apoptotic cells at 1 uM incubated for 48 hrs by Annexin V-FITC/PI staining based flow cytometry analysis (Rvb= 4.35%); assay type: functional
K562 [18] = assay: Induction of apoptosis in human K562 cells assessed as early apoptotic cells at 5 uM incubated for 48 hrs by Annexin V-FITC/PI staining based flow cytometry analysis (Rvb= 4.35%); assay type: functional
[19] = target: BDNF/NT-3 growth factors receptor (Homo sapiens) (UniProt Q16620); assay: Inhibition of recombinant human TRKB at 10 uM for 10 mins followed by substrate addition in presence of ATP and measured after 100 mins by ADP-Glo kinase assay; conditions: time 110.0 min
Chain of BDNF/NT-3 growth factors receptor (Homo sapiens) (Q16620 32-822 limits assumed): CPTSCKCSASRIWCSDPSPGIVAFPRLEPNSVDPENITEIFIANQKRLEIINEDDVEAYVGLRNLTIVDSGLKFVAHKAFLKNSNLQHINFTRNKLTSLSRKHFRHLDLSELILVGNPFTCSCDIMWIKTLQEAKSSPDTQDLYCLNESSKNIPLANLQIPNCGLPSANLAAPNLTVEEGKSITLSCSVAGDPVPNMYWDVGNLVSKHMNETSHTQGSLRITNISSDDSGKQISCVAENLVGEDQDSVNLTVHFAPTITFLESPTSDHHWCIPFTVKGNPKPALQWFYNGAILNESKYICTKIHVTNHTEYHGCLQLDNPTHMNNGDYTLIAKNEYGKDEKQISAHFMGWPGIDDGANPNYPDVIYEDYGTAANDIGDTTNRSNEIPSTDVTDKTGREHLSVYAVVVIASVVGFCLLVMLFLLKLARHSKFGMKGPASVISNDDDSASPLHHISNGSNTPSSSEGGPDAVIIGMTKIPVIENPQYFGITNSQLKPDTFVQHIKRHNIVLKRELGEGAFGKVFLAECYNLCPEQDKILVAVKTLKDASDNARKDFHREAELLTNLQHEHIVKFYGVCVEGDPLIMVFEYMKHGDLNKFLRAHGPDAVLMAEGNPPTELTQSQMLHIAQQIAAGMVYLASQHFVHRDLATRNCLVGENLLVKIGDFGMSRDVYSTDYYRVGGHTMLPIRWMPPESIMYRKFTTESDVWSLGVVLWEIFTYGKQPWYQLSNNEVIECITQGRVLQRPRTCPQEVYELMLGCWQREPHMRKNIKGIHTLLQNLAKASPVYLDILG

inhibition [1]: 47.7%
inhibition [3]: 68.4%
inhibition [5]: 68.4%
inhibition [6]: 87.9%
inhibition [7]: Dde
inhibition [8]: Dde
pIC50 (BaF3 [11]): 6.89
inhibition [12]: 87.9%
inhibition [13]: 47.7%
inhibition [16]: 56.4%
inhibition [19]: 54.3%
SMILES: O=C(Nc1nc2ccc(-c3cn([C@@H]4CN[C@H](C(=O)Nc5ccc(Cl)cc5Cl)C4)nn3)nc2s1)C1CC1
Activity (K562 [2]): 0.03%
Activity (K562 [4]): 19.42%
Activity (K562 [9]): 7.16%
inhibition at 30 µM (BaF3 [10]): 87.6%
viability at 10 µM (K562 [14]): 49.7%
Activity (K562 [15]): 37.12%
Activity (HEK293): Non-Toxic
Activity (K562 [17]): 3.59%
Activity (K562 [18]): 4.85%
